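Compound exposure: 48 hours, 5 concentrations, 96-well plates. GI50 = concentration required for 50% inhibition of growth. TGI: total growth inhibition.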
What was measured:
Assay in all cases: growth of human tumour cells (NCI), 48 h
[1] = system: UO-31 renal
[2] = system: SK-OV-3 ovarian
[3] = system: UACC-62 melanoma
[4] = system: MCF7 breast
[5] = system: HCT-116 colon
[6] = system: HOP-62 NSCLC
[7] = system: DU-145 prostate
[8] = system: CAKI-1 renal
[9] = system: RXF 393 renal
[10] = system: BT-549 breast
[11] = system: NCI-H460 lung
[12] = system: SF-539 CNS
[13] = system: SK-MEL-2 melanoma
[14] = system: MDA-MB-435
[15] = system: COLO 205 colon
[16] = system: SNB-19 CNS
[17] = system: MOLT-4 leukemia
[18] = system: NCI-H226 lung
[19] = system: CCRF-CEM leukemia
[20] = system: PC-3 prostate
[21] = system: HS 578T breast
[22] = system: NCI-H522 lung
[23] = system: KM12 colon
[24] = system: A549 NSCLC
[25] = system: RPMI-8226 leukemia
[26] = system: 786-0 renal
[27] = system: T-47D breast
[28] = system: SR leukemia
[29] = system: M14 melanoma
[30] = system: HCT-15 colon
[31] = system: HOP-92 NSCLC
[32] = system: U251 CNS
[33] = system: K-562 leukemia
[34] = system: TK-10 renal
[35] = system: NCI/ADR-RES ovarian
[36] = system: OVCAR-5 ovarian
[37] = system: HCC-2998 colon
[38] = system: SK-MEL-5 melanoma
[39] = system: ACHN renal
[40] = system: SNB-75 CNS
[41] = system: HT29 colon
[42] = system: MALME-3M melanoma
[43] = system: MDA-MB-231 breast
[44] = system: SW-620 colon
[45] = system: IGROV1 ovarian
[46] = system: OVCAR-8 ovarian
[47] = system: NCI-H23 lung
[48] = system: SN12C renal
[49] = system: OVCAR-4 ovarian
[50] = system: UACC-257 melanoma
[51] = system: HL-60(TB) leukemia
[52] = system: SF-268 CNS
[53] = system: A498 renal
[54] = system: LOX IMVI melanoma
[55] = system: SF-295 CNS

SMILES: O=C(Nc1cccc(-n2cc(-c3ccncc3)c(-c3ccc(O)c(Cl)c3)n2)c1)c1ccc2c(c1)OCCO2
- GI50 [1]: 4.03 µM
- TGI [1]: > 100 µM
- GI50 [2]: > 100 µM
- TGI [2]: > 100 µM
- GI50 [3]: 7.96 µM
- TGI [3]: > 100 µM
- GI50 [4]: 4.24 µM
- TGI [4]: > 100 µM
- GI50 [5]: 5.44 µM
- TGI [5]: > 100 µM
- GI50 [6]: > 100 µM
- TGI [6]: > 100 µM
- GI50 [7]: > 100 µM
- TGI [7]: > 100 µM
- GI50 [8]: 6.34 µM
- TGI [8]: > 100 µM
- GI50 [9]: 3.02 µM
- TGI [9]: > 100 µM
- GI50 [10]: 4.92 µM
- TGI [10]: > 100 µM
- GI50 [11]: 6.2 µM
- TGI [11]: > 100 µM
- GI50 [12]: 6.63 µM
- TGI [12]: > 100 µM
- GI50 [13]: > 100 µM
- TGI [13]: > 100 µM
- GI50 [14]: > 100 µM
- TGI [14]: > 100 µM
- GI50 [15]: 89.2 µM
- TGI [15]: > 100 µM
- GI50 [16]: > 100 µM
- TGI [16]: > 100 µM
- GI50 [17]: 4.88 µM
- TGI [17]: > 100 µM
- GI50 [18]: 12.2 µM
- TGI [18]: > 100 µM
- GI50 [19]: 3.75 µM
- TGI [19]: > 100 µM
- GI50 [20]: 7.3 µM
- TGI [20]: > 100 µM
- GI50 [21]: 6.01 µM
- TGI [21]: > 100 µM
- GI50 [22]: 6.25 µM
- TGI [22]: > 100 µM
- GI50 [23]: 4.83 µM
- TGI [23]: > 100 µM
- GI50 [24]: 5.85 µM
- TGI [24]: > 100 µM
- GI50 [25]: 2.19 µM
- TGI [25]: > 100 µM
- GI50 [26]: 3.27 µM
- TGI [26]: > 100 µM
- GI50 [27]: 3.44 µM
- TGI [27]: > 100 µM
- GI50 [28]: 2.46 µM
- TGI [28]: > 100 µM
- GI50 [29]: 5.83 µM
- TGI [29]: > 100 µM
- GI50 [30]: 3.7 µM
- TGI [30]: > 100 µM
- GI50 [31]: 2.26 µM
- TGI [31]: > 100 µM
- GI50 [32]: 4.02 µM
- TGI [32]: > 100 µM
- GI50 [33]: 4.26 µM
- TGI [33]: > 100 µM
- GI50 [34]: > 100 µM
- TGI [34]: > 100 µM
- GI50 [35]: 5.7 µM
- TGI [35]: > 100 µM
- GI50 [36]: > 100 µM
- TGI [36]: > 100 µM
- GI50 [37]: > 100 µM
- TGI [37]: > 100 µM
- GI50 [38]: 3.95 µM
- TGI [38]: > 100 µM
- GI50 [39]: 7.38 µM
- TGI [39]: > 100 µM
- GI50 [40]: 4 µM
- TGI [40]: > 100 µM
- GI50 [41]: 7.03 µM
- TGI [41]: > 100 µM
- GI50 [42]: > 100 µM
- TGI [42]: > 100 µM
- GI50 [43]: 2.92 µM
- TGI [43]: > 100 µM
- GI50 [44]: > 100 µM
- TGI [44]: > 100 µM
- GI50 [45]: > 100 µM
- TGI [45]: > 100 µM
- GI50 [46]: 3.67 µM
- TGI [46]: > 100 µM
- GI50 [47]: > 100 µM
- TGI [47]: > 100 µM
- GI50 [48]: 55.7 µM
- TGI [48]: > 100 µM
- GI50 [49]: > 100 µM
- TGI [49]: > 100 µM
- GI50 [50]: > 100 µM
- TGI [50]: > 100 µM
- GI50 [51]: 4.54 µM
- TGI [51]: > 100 µM
- GI50 [52]: > 100 µM
- TGI [52]: > 100 µM
- GI50 [53]: > 100 µM
- TGI [53]: > 100 µM
- GI50 [54]: 4.77 µM
- TGI [54]: > 100 µM
- GI50 [55]: 4.88 µM
- TGI [55]: > 100 µM
